Assay results taken from patent publication US20030212034A1, “Method of treatment of obesity and paralyzed muscle and ergogenic aids” (priority 2002, published 2003).

Legend:
Format in all cases: in vivo, rat
[1] = test system: δ-Aminolevulinate synthase; experiment: Muscle δ-aminolevulinate synthase protein by western blot after AICAR injection
Protocol: […] Beginning with the first injection, controls were pair fed with AICAR-injected rats. […] Muscles were kept frozen at −70° C. until analyzed. Liver, heart, kidney, and fat pads were weighed.
For the chronic effects of AICAR injection muscles were analyzed for glycogen GLUT-4, hexokinase, lactate dehydrogenase, and several mitochondrial enzymes. Hassid, W. Z., & S. Abraham Methods Enzymol. 3:35-36, 1957. GLUT4 was quantitated by western blotting as described previously using GLUT4 polyclonal antibody RaIRGT, Biogenesis, Sandown, N.H.) and horseradish peroxidase-conjugated donkey anti-rabbit IgG (Amersham Life Science, Arlington Heights, Ill.). Holmes, B. F., et al. J. Appl Physiol 87:1990-1995, 1999. δ-Aminolevulinic acid synthase was determined using western blotting techniques as described previously. Li, B., et al. J. Biol. Chem. 274:17534-17540, 1999. […] Cytochrome c was detected by incubating the nitrocellulose blots with a rabbit polyclonal antibody against rabbit heart cytochrome c (Alpha Diagnostics International, San Antonio) followed by horseradish peroxidase-conjugated anti-rabbit immunoglobulin G. Antibody bound GLUT4, δ-Aminolevulinic acid synthase, and cytochrome c were visualized using enhanced chemiluminescence. Protein bands were quantified by densitometry.

[2] = test system: hydroxyacyl-CoA dehydrogenase; experiment: Muscle hydroxyacyl-CoA dehydrogenase activity after chronic AICAR injection; settings: chronic AICAR 1 mg/g daily 4 wk
Protocol: (§1) To determine the effect of chronic injection of AICAR on muscle enyzme activities or expression and on muscle GLUT4, rats were injected subcutaneously (between 8 and 10 a.m.) with AICAR (1 mg/g) or saline vehicle daily for 28±1 days in succession. Beginning with the first injection, controls were pair fed with AICAR-injected rats. Rats were anesthetized by intraperitoneal injection of pentobarbital sodium 22-25 hours after the last AICAR injection and the white and red regions of the quadriceps and the soleus muscles were removed and frozen as described above. Muscles were kept frozen at −70° C. until analyzed. Liver, heart, kidney, and fat pads were weighed.
(§2) For enzyme activity measurements, 10% homogenates were made from the respective muscles in 175 mM KCl, 10 mM GSH, 2 mM EDTA, pH 7.4. This homogenate was frozen and thawed 3 times and mixed thoroughly prior to enzymatic measurements. For succinate dehydrogenase and lactate dehydrogenase, an aliquot of the homogenate was centrifuged at 700×g for 10 min at 4° C. The remainder of the assays were performed on aliquots and dilutions of the mixed whole homogenate. Assays were performed by the following methods: citrate synthase, succinate dehydrogenase, the mitochondrial fraction of malate dehydrogenase, hexokinase, lactate dehydrogenase, carnitine palmitoyl transferase and hydroxyacyl-CoA dehydrogenase. Srere, P. A. Methods in Enzymology 13:3-6, 1969; King, T. E. Methods Enzymol 10:322-335, 1967; Shonk, C. E. & G. E. Boxer, Cancer Res. 24:709-721, 1964; Uyeda, K., & E. Racker, J. Biol Chem 240:4682-4688, 1965; Pesce, A., et al. J. Biol. Chem. 239:1753-1761, 1964; Baldwin, K. M., et al. Am. J. Physiol 222:373-378, 1972; Mole, P. A., et al. J. Clin. Invest. 50:2323-2330, 1971; Kobayashi, A. et al. J. Biochem. 119:775-782, 1996.

hexokinase = experiment: Muscle hexokinase activity after chronic AICAR injection; settings: AICAR 1 mg/g 4 weeks, FIG. 5
Protocol: as §1, §2

[3] = test system: acetyl-CoA carboxylase (ACC); experiment: ACC activity and citrate dependence in denervated and contralateral muscles after acute AICAR injection; settings: for ACC activity vs saline, several citrate concentrations / ACC activity at 0.2 mM citrate vs saline-treated contralateral innervated soleus: acute AICAR 1 mg/g; for ACC activity vs saline, several citrate concentrations: FIG. 10; for ACC activity at 0.2 mM citrate vs saline-treated contralateral innervated soleus: FIG. 9
Description: (§3) Rats were anesthetized with ether and the sciatic nerve of the right hindlimb was severed. The left hindlimb was sham operated to serve as a control. Both skin wounds were closed with a metal clips. The rats used for the acute study were also implanted with a jugular catheter which was exteriorized on the back of the neck at the time of denervation for rapid administration of anesthesia.
(§4) Rats were denervated between 8:30 a.m. and 10:30 a.m. and were then given 25 g of food. Rats were handled twice during the day to accustom them to being handled. The rats were given a single subcutaneous injection 24 hours. after surgery of either AICAR (1 mg/g body weight) in sterile 0.9% NaCl or with just 0.9% NaCl, and were subsequently anesthetized intravenously. Soleus and gastrocnemius muscles from both sham and denervated sides were extracted and quick frozen in liquid nitrogen for analysis. AMPK activity and acetyl-Co A carboxylase (ACC) activity were determined as previously described. Winder W W & Hardie D G, Am J. Physiol 270 (Endocrinol Metab 33): E299-E304, 1996. Because this analysis is done on homogenates prepared by ammonium sulfate precipitation, only those effects on AMPK activity modified by phosphorylation are measured. […] Because ACC is a target for phosphorylation by AMPK, and because ACC activity has been reported to decrease in response to phosphorylation by AMPK, ACC activity is measured to give an indication of the in vivo actions of AMPK.
Referring to FIG. 10, Citrate dependence of acetyl-CoA carboxylase (ACC) in denervated and contralateral innervated gastrocnemius muscles from rats treated with AICAR (1 mg AICAR in 0.9% NaCl/1 g body weight) or saline (0.9% NaCl) is illustrated. SE values were determined but are not shown (n=5).Curves were fitted to data by using the Hill equation and Grafit software (Sigma Chemical, St. Louis, Mo.). FIG. 10 graphs the specific activity of ACC in saline-treated and AICAR-treated gastrocnemius muscles at several different citrate concentrations.

cytochrome c = experiment: Muscle cytochrome c protein by western blot after chronic AICAR injection; settings: AICAR 4 weeks, FIG. 2
Protocol: as §1
For the chronic effects of AICAR injection muscles were analyzed for glycogen GLUT-4, hexokinase, lactate dehydrogenase, and several mitochondrial enzymes. Hassid, W. Z., & S. Abraham Methods Enzymol. 3:35-36, 1957. GLUT4 was quantitated by western blotting as described previously using GLUT4 polyclonal antibody RaIRGT, Biogenesis, Sandown, N.H.) and horseradish peroxidase-conjugated donkey anti-rabbit IgG (Amersham Life Science, Arlington Heights, Ill.). Holmes, B. F., et al. J. Appl Physiol 87:1990-1995, 1999. δ-Aminolevulinic acid synthase was determined using western blotting techniques as described previously. Li, B., et al. J. Biol. Chem. 274:17534-17540, 1999. […] Protein bands were quantified by densitometry.

[4] = test system: AMP-activated protein kinase (AMPK); experiment: AMPK activity in denervated and contralateral muscles after acute AICAR injection; settings: acute AICAR 1 mg/g
Description: as §3, §4

NC(=O)c1ncn([C@@H]2O[C@H](CO)[C@@H](O)[C@H]2O)c1N [AICAR, 5-aminoimidazole-4-carboxamide-1-β-D-ribofuranoside]
effect of a single injection on δ-aminolevulinate synthase ([1]; single AICAR injection 16 hours prior to tissue collection, preliminary, data not shown): negative results
muscle content of δ-aminolevulinic acid synthase vs saline controls ([1]; white quadriceps, AICAR 4 weeks, FIG. 2): significantly increased
HADH activity ([2]; red quadriceps): 9.0 ± 0.4 µmol/g/min
HADH activity ([2]; soleus): 4.6 ± 0.4 µmol/g/min
HADH activity ([2]; white quadriceps): 4.6 ± 0.3 µmol/g/min
hexokinase activity vs saline-injected controls (hexokinase; red region of the quadriceps): significantly increased
hexokinase activity vs saline-injected controls (hexokinase; soleus): increase in hexokinase activity in soleus was statistically significant
hexokinase activity vs saline-injected controls (hexokinase; white region of the quadriceps): significantly increased
ACC activity vs saline, several citrate concentrations ([3]; contralateral innervated gastrocnemius): significantly decrease ACC activity
ACC activity at 0.2 mM citrate vs saline-treated contralateral innervated soleus ([3]; contralateral soleus): significantly (P<0.01) decreased
ACC citrate activation constant (Ka) ([3]; denervated gastrocnemius, acute AICAR 1 mg/g s.c., saline-treated denervated 3.6±0.3): 13.2±1.1
ACC maximal velocity (Vmax) as a function of citrate concentration ([3]; denervated gastrocnemius, acute AICAR 1 mg/g s.c., saline-treated denervated 36.7±5): 24.7±1.9
ACC activity vs saline, several citrate concentrations ([3]; denervated gastrocnemius): significantly decrease ACC activity
ACC activity at 0.2 mM citrate vs saline-treated contralateral innervated soleus ([3]; denervated soleus): significantly (P<0.01) decreased
cytochrome c protein vs saline controls (cytochrome c; red quadriceps): not in red quadriceps
cytochrome c protein vs saline controls (cytochrome c; white quadriceps): also increased
AMPK activity vs saline-treated contralateral innervated muscles ([4]; contralateral innervated gastrocnemius, FIG. 7): significantly (P<0.05) elevated
AMPK activity vs saline-treated contralateral innervated muscles ([4]; contralateral innervated soleus, FIG. 8): significantly (P<0.05) elevated
AMPK activity vs saline-treated contralateral innervated muscles ([4]; denervated gastrocnemius, FIG. 7): significantly (P<0.05) elevated
